In patent US20240025906A1 (NEURON23, INC., priority 2022, published 2024):
Read-outs that look alike come from different tables or passages of the source.

Experiments:
[1] = target: T1, TYK2 JH2 (Homo sapiens, UniProt P29597); assay: TYK2 JH2 binding assay (KINOMEscan KdELECT competitive binding); conditions: TYK2 JH2 domain
T1 construct: purchased DiscoverX (KINOMEscan KdELECT service); host or cells: E. coli BL21-derived (T7 phage display) or HEK-293
Method in brief: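 Beads carrying a biotinylated ligand were mixed with tagged JH2 kinase and compound (11 points, 3-fold steps, 0.9% DMSO) and shaken 1 h at room temperature. After washing, kinase was released with 0.5 μM untagged ligand over 30 min and measured by qPCR to derive Kd.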

[2] = test system: JAK1/TYK2 pSTAT5 (Tyr694/699) in THP-1 cell line; assay: IFNa-stimulated JAK1/TYK2 pSTAT5 (Tyr694/699) inhibition cellular assay, AlphaLISA; assay type: cell-based; conditions: THP-1 cells, AlphaLISA (Assay B)
Method in brief: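 THP-1 cells (2e4/well in HBSS) were preincubated with compound (8 points, 6-fold steps from 10000 nM final) for 1 h at 37 °C, then stimulated with IFNa (added at 100 ng/mL) for 30 min. Lysate pSTAT5 was read by AlphaLISA at 615 nm. IC50 came from a 4-parameter fit with bottom 0 and Hill −1.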

[3] = DiscoverX KINOMEscan KdELECT (Assay A), read-out: Biochemical TYK2_DiscoverX_JH2_BND_Kd
[4] = Homo sapiens, IFNa-stimulated, read-out: Cellular_THP1_IFNa-pSTATS_TYK2
[5] = KINOMEscan KdELECT (Assay A), read-out: Biochemical TYK2_DiscoverX_JH2_BND_Kd
[6] = KINOMEscan KdELECT (Assay A), read-out: Biochemical TYK2_JH2_Kd
[7] = Homo sapiens, IFNa-stimulated, read-out: Cellular THP1_IFNa-pSTATS_IC50
[8] = Homo sapiens, IFNa-stimulated pSTAT5 (Tyr694/699), read-out: Cellular_THP1_IFNa-pSTATS_TYK2

T1 sequence (P29597 589-875 limits assumed): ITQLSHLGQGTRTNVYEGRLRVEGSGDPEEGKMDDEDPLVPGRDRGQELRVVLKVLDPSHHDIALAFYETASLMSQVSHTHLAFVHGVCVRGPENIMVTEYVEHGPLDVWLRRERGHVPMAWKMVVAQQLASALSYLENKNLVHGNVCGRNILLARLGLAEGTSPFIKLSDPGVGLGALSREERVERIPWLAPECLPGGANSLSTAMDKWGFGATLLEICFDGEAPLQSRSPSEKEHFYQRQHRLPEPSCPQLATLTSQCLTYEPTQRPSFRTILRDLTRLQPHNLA

| Kd [1, 3] [nM] | IC50 [2, 4] [nM] | Kd [1, 5] [nM] | SMILES | also measured |
| --- | --- | --- | --- | --- |
| ≤ 100 | > 500 |  | O=C(Nc1cc2c(-c3nc4ccccc4o3)cnc(O)c2cn1)C1CC1 [Example 371, N-(5-(benzo[d]oxazol-2-yl)-8-hydroxy-2,7-naphthyridin-3-yl)cyclopropanecarboxamide] |  |
|  | ≤ 500 | ≤ 100 | CNc1ncc(-c2nc3cc([C@]45C[C@H](CO4)C5)ccc3o2)c2cc(NC(=O)C3CC3)ncc12 [Example 946, N-(5-(5-((1s,4s)-2-oxabicyclo[2.1.1]hexan-1-yl)benzo[d]oxazol-2-yl)-8-(methylamino)-2,7-naphthyridin-3-yl)cyclopropanecarboxamide] |  |
|  | ≤ 500 | ≤ 100 | CNc1ncc(C#Cc2sc(C(C)=O)cc2C)c2cc(NC(=O)C3CC3)ncc12 [Example 959, N-(5-((5-acetyl-3-methylthiophen-2-yl)ethynyl)-8-(methylamino)-2,7-naphthyridin-3-yl)cyclopropanecarboxamide] |  |
| ≤ 100 | ≤ 500 |  | [2H]C([2H])([2H])Nc1ncc(-c2nc3cc(N4CCOCC4)ccc3o2)c2cc(NC(=O)C3CC3)ncc12 [Example 364, N-(8-((methyl-d3)amino)-5-(5-morpholinobenzo[d]oxazol-2-yl)-2,7-naphthyridin-3-yl)cyclopropanecarboxamide] |  |
| ≤ 100 | ≤ 500 |  | CNc1ncc(-c2nc3cc(N4CCCC5(CCO5)C4)ccc3o2)c2cc(NC(=O)C3CC3)ncc12 (centres unmarked) [Example 313, N-(5-(5-(1-oxa-6-azaspiro[3.5]nonan-6-yl)benzo[d]oxazol-2-yl)-8-(methylamino)-2,7-naphthyridin-3-yl)cyclopropanecarboxamide] |  |
|  |  | ≤ 100 | CNc1ncc(-c2cn3cc(N4CCO[C@@H](C)C4)ccc3n2)c2cc(NC(=O)C3(F)CC3)ncc12 [Example 1085, 1-fluoro-N-[8-(methylamino)-5-[6-[(2S)-2-methylmorpholin-4-yl]imidazo[1,2-a]pyridin-2-yl]-2,7-naphthyridin-3-yl]cyclopropanecarboxamide] | IC50 [2, 8]: ≤ 500 nM |
|  | ≤ 500 | ≤ 100 | CCC(=O)N1CC(Oc2ccc(C#Cc3cnc(NC)c4cnc(NC(=O)C5CC5)cc34)cc2)C1 [Example 770, N-(8-(methylamino)-5-((4-((1-propionylazetidin-3-yl)oxy)phenyl)ethynyl)-2,7-naphthyridin-3-yl) cyclopropanecarboxamide] |  |
|  |  | ≤ 100 | CNc1ncc(C#Cc2ccc(OC)cn2)c2cc(Nc3cccn(-c4ccccn4)c3=O)ncc12 [Example 1087, 3-[[5-[2-(5-methoxy-2-pyridyl)ethynyl]-8-(methylamino)-2,7-naphthyridin-3-yl]amino]-1-(2-pyridyl)pyridin-2-one] | IC50 [2, 8]: > 500 nM |
| ≤ 100 | ≤ 500 |  | CNc1ncc(-c2nc3ccc(N4CCOCC4)cn3n2)c2cc(Nc3ccc(C(C)(C)O)cn3)ncc12 [Example 538, 2-(6-((8-(methylamino)-5-(6-morpholino-[1,2,4]triazolo[1,5-a]pyridin-2-yl)-2,7-naphthyridin-3-yl)amino)pyridin-3-yl)propan-2-ol] |  |
| ≤ 100 | ≤ 500 |  | CNc1ncc(-c2nc3ccc(N4CCO[C@@H](C)C4)cn3n2)c2cc(Nc3ccccn3)ncc12 [Example 543, (S)—N^1-methyl-4-(6-(2-methylmorpholino)-[1,2,4]triazolo[1,5-a]pyridin-2-yl)-N^6-(pyridin-2-yl)-2,7-naphthyridine-1,6-diamine] |  |
|  | ≤ 500 | ≤ 100 | CNc1ncc(C#Cc2ccncc2C(F)(F)F)c2cc(NC(=O)C3CC3)ncc12 [Example 646, N-(8-(methylamino)-5-((3-(trifluoromethyl)pyridin-4-yl)ethynyl)-2,7-naphthyridin-3-yl)cyclopropanecarboxamide] |  |

The remaining lines, values behind:

| SMILES | Kd [1, 3] [nM] | IC50 [2, 4] [nM] | Kd [1, 5] [nM] | also measured |
| --- | --- | --- | --- | --- |
| CNc1ncc(-c2nc3cc(OC[C@H](C)OC)ccc3o2)c2cc(NC(=O)C3CC3)ncc12 [Example 242, (S)—N-(5-(5-(2-methoxypropoxy)benzo[d]oxazol-2-yl)-8-(methylamino)-2,7-naphthyridin-3-yl)cyclopropanecarboxamide] | ≤ 100 | ≤ 500 |  |  |
| CNc1ncc(-c2nc3ccc(N4CCO[C@@H](C)C4)cn3n2)c2cc(Nc3cc(C)n(C)n3)ncc12 [Example 544, (S)—N^6-(1,5-dimethyl-1H-pyrazol-3-yl)-N^1-methyl-4-(6-(2-methylmorpholino)-[1,2,4]triazolo[1,5-a]pyridin-2-yl)-2,7-naphthyridine-1,6-diamine] | ≤ 100 | ≤ 500 |  |  |
| CNc1ncc(-c2nc3cc(C4CCN(C)CC4)ccc3o2)c2cc(NC(=O)C3CC3)ncc12 [Example 361, N-(8-(methylamino)-5-(5-(1-methylpiperidin-4-yl)benzo[d]oxazol-2-yl)-2,7-naphthyridin-3-yl)cyclopropanecarboxamide] | ≤ 100 | ≤ 500 |  |  |
| CNc1ncc(C#Cc2ccc3c(c2)CC[C@H](CO)O3)c2cc(NC(=O)C3CC3)ncc12 (single isomer, unassigned) [Example 982] |  | ≤ 500 | ≤ 100 |  |
| CNc1ncc(-c2cc(C)n[nH]2)c2cc(NC(=O)C3CC3)ncc12 [Example 23, N-(5-(3-methyl-1H-pyrazol-5-yl)-8-(methylamino)-2,7-naphthyridin-3-yl)cyclopropanecarboxamide] |  |  |  | Kd [1, 6]: ≤ 100 nM; IC50 [2, 7]: > 500 nM |
| CNc1ncc(C#Cc2ccc3nc(C)n(C)c3c2)c2cc(NC(=O)C3CC3)ncc12 [Example 647, N-(5-((1,2-dimethyl-1H-benzo[d]imidazol-6-yl)ethynyl)-8-(methylamino)-2,7-naphthyridin-3-yl)cyclopropanecarboxamide] |  | ≤ 500 | ≤ 100 |  |
| [2H]C([2H])([2H])Nc1ncc(-c2nc3ccccn3n2)c2cc(NC(=O)C3CC3F)ncc12 (racemic) [Example 565, N-(5-([1,2,4]triazolo[1,5-a]pyridin-2-yl)-8-((methyl-d3)amino)-2,7-naphthyridin-3-yl)-2-fluorocyclopropane-1-carboxamide] | ≤ 100 |  |  | IC50 ([2]; IFNa-stimulated, read-out: Cellular_THP1_IFNa-pSTATS_TYK2): ≤ 500 nM |
| CNc1ncc(-c2ccc(COC)cc2)c2cc(NC(=O)C3CC3)ncc12 [Example 169, N-(5-(4-(methoxymethyl)phenyl)-8-(methylamino)-2,7-naphthyridin-3-yl)cyclopropanecarboxamide] |  |  |  | Kd [1, 6]: ≤ 100 nM; IC50 [2, 7]: > 500 nM |
| CNc1ncc(/C=C/c2ccc(N3CCOCC3)cc2)c2cc(NC(=O)C3CC3)ncc12 [Example 792, (E)-N-(8-(methylamino)-5-(4-morpholinostyryl)-2,7-naphthyridin-3-yl)cyclopropanecarboxamide] |  | ≤ 500 | ≤ 100 |  |
| CNc1ncc(-c2ncc(C)s2)c2cc(NC(=O)C3CC3)ncc12 [Example 66, N-(8-(methylamino)-5-(5-methylthiazol-2-yl)-2,7-naphthyridin-3-yl)cyclopropanecarboxamide] |  |  |  | Kd [1, 6]: ≤ 100 nM; IC50 [2, 7]: > 500 nM |
| CNc1ncc(C2CCOC2=O)c2cc(NC(=O)C3CC3)ncc12 (centres unmarked) [Example 86, N-(8-(methylamino)-5-(2-oxotetrahydrofuran-3-yl)-2,7-naphthyridin-3-yl)cyclopropanecarboxamide] |  |  |  | Kd [1, 6]: ≤ 100 nM; IC50 [2, 7]: > 500 nM |
| CNc1ncc(C#Cc2ccc(OCC(C)(C)O)cc2)c2cc(NC(=O)[C@@H]3C[C@@H]3C(F)F)ncc12 (single isomer, unassigned) [Example 756] |  | ≤ 500 | ≤ 100 |  |
| CNc1ncc(-c2nc3cc(N4C[C@@H](C)O[C@@H](C)C4)ccc3o2)c2cc(NC(=O)[C@@H]3C[C@@H]3F)ncc12 [Example 1062, (1S,2S)-N-[5-[5-[(2R,6S)-2,6-dimethylmorpholin-4-yl]-1,3-benzoxazol-2-yl]-8-(methylamino)-2,7-naphthyridin-3-yl]-2-fluoro-cyclopropanecarboxamide] |  |  | ≤ 100 | IC50 [2, 8]: ≤ 500 nM |
| CNc1ncc(-c2nc3ccc(N4CCO[C@@H](C)C4)cn3n2)c2cc(Nc3ccn(C)n3)ncc12 [Example 545, (S)—N^1-methyl-N^6-(1-methyl-1H-pyrazol-3-yl)-4-(6-(2-methylmorpholino)-[1,2,4]triazolo[1,5-a]pyridin-2-yl)-2,7-naphthyridine-1,6-diamine] | ≤ 100 | ≤ 500 |  |  |
| CNc1ncc(C#Cc2ccc(SC)cc2)c2cc(NC(=O)C3CC3)ncc12 [Example 650, N-(8-(methylamino)-5-((4-(methylthio)phenyl)ethynyl)-2,7-naphthyridin-3-yl)cyclopropanecarboxamide] |  | ≤ 500 | ≤ 100 |  |
| CNc1ncc(-c2cn3cc(N4CCO[C@@H](C)C4)ccc3n2)c2cc(NC(=O)C3CC3)ncc12 [Example 1052] |  |  | ≤ 100 | IC50 [2, 8]: ≤ 500 nM |
| CNc1ncc(-c2nc3ccc(N4CCC(F)(F)CC4)cn3n2)c2cc(NC(=O)C3CC3)ncc12 [Example 483, N-(5-(6-(4,4-difluoropiperidin-1-yl)-[1,2,4]triazolo[1,5-a]pyridin-2-yl)-8-(methylamino)-2,7-naphthyridin-3-yl)cyclopropanecarboxamide] | ≤ 100 | ≤ 500 |  |  |
